Earlier results on five compounds are cited in patent US20240024253A1, “Continuous Drug Delivery Systems and Methods” (Pike Therapeutics Inc., priority 2022, published 2024).

The target of one data set is CB2 cannabinoid receptor (Homo sapiens, UniProt P34972). The conditions noted are these: CB2 versus CB1.
The target in a further data set is CB1 cannabinoid receptor. The conditions noted are these: parameter not named at the place.

Chain of CB2 cannabinoid receptor (P34972 whole entry): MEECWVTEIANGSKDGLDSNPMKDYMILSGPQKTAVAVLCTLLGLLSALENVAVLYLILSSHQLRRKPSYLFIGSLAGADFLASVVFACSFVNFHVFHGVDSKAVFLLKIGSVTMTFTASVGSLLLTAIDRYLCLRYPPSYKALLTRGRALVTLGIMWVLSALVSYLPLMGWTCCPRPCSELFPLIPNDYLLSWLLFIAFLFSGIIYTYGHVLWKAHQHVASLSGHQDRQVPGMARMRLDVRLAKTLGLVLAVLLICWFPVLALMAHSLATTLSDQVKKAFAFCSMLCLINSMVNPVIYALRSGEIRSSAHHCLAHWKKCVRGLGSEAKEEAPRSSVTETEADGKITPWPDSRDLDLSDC

Consider `CCCCCCC(C)(C)c1cc(O)c2c(c1)oc(=O)c1ccc(OC)cc12` [AM-1710], for which the “selectivity / binding strength CB2 over CB1” value on CB2 cannabinoid receptor is listed as 54 ×. As to `CCCn1cc(C(=O)c2ccc(C)c3ccccc23)c2ccccc21` [JWH-120], the “selectivity for CB2 receptor” value at CB2 cannabinoid receptor is listed as 173 fold.

With `CCCn1c(C)c(C(=O)c2ccc(C)c3ccccc23)c2ccccc21` [JWH-148], at CB2 cannabinoid receptor, the “selectivity for CB2 over the CB1 subtype” value is on record as “more than 8 times”.

The term Ki denotes the dissociation constant of the complex between target and ligand, obtained from inhibition or displacement. For the compound `CCCCCn1cc(Cc2cccc3ccccc23)c2ccccc21` [JWH-175, (1-pentylindol-3-yl)naphthalen-1-ylmethane], on CB1 cannabinoid receptor, the inhibition constant (Ki) is 22 nM. On to `CCCCCCC(C)(C)c1cc(OC)c2c(c1)OC(C)(C)C1CCC(O)CC21` (stereo not drawn) [JWH-350, 11-nor-1-methoxy-3-(1′,1′-dimethylheptyl)-9α-hydroxyhexahydrocannabinol], for which the “selectivity for CB2 receptor” value at CB2 cannabinoid receptor is listed as 33 fold.
